# Laboratory results published in PMC12028158, “Synthesis and In Vitro Evaluation of the Anticancer Effect of Novel Phosphonium Vindoline Derivatives” (International Journal of Molecular Sciences, 2025).
# Like-named read-outs stand apart in the source and are kept apart here.
# How the values were obtained:
# Type in all cases: cell-based
# SF-268 = assay: NCI60 five-dose screen; conditions: Homo sapiens
# CCRF-CEM [1] = assay: NCI60 five-dose screen; conditions: Homo sapiens
# Prostate Cancer panel = assay: NCI60 five-dose screen, panel mean; conditions: Homo sapiens, read-out: GI50 Mean
# HCT-15 = assay: NCI60 five-dose screen; conditions: Homo sapiens
# UACC-257 = assay: NCI60 one-dose screen; conditions: Homo sapiens
# UACC-62 [2] = assay: NCI60 one-dose screen; conditions: Homo sapiens
# BT-549 [3] = assay: NCI60 five-dose screen; conditions: Homo sapiens
# BT-549 [4] = assay: NCI60 one-dose screen; conditions: Homo sapiens
# CAKI-1 = assay: NCI60 one-dose screen; conditions: Homo sapiens
# SF-539 [5] = assay: NCI60 one-dose screen; conditions: Homo sapiens
# SNB-75 = assay: NCI60 one-dose screen; conditions: Homo sapiens
# IGROV1 [6] = assay: NCI60 five-dose screen; conditions: Homo sapiens, IGROV-1
# CCRF-CEM [7] = assay: NCI60 one-dose screen; conditions: Homo sapiens, read-out: Growth percent
# HCT-116 = assay: NCI60 five-dose screen; conditions: Homo sapiens
# NCI-H460 = assay: NCI60 one-dose screen; conditions: Homo sapiens
# SNB-19 = assay: NCI60 five-dose screen; conditions: Homo sapiens
# Breast Cancer panel = assay: NCI60 five-dose screen, panel mean; conditions: Homo sapiens, read-out: GI50 Mean
# MCF7 [8] = assay: NCI60 one-dose screen; conditions: Homo sapiens
# OVCAR-3 = assay: NCI60 one-dose screen; conditions: Homo sapiens
# MALME-3M = assay: NCI60 five-dose screen; conditions: Homo sapiens
# EKVX [9] = assay: NCI60 five-dose screen; conditions: Homo sapiens
# SK-MEL-5 = assay: NCI60 one-dose screen; conditions: Homo sapiens
# PC-3 = assay: NCI60 one-dose screen; conditions: Homo sapiens
# EKVX [10] = assay: NCI60 one-dose screen; conditions: Homo sapiens, read-out: Growth percent
# TK-10 = assay: NCI60 five-dose screen; conditions: Homo sapiens
# NCI/ADR-RES [11] = assay: NCI60 five-dose screen; conditions: Homo sapiens
# SF-539 [12] = assay: NCI60 five-dose screen; conditions: Homo sapiens
# OVCAR-8 [13] = assay: NCI60 one-dose screen; conditions: Homo sapiens
# Colon Cancer panel = assay: NCI60 five-dose screen, panel mean; conditions: Homo sapiens, read-out: GI50 Mean
# NCI-H226 = assay: NCI60 five-dose screen; conditions: Homo sapiens
# HS 578T = assay: NCI60 five-dose screen; conditions: Homo sapiens
# RXF 393 = assay: NCI60 one-dose screen; conditions: Homo sapiens
# OVCAR-8 [14] = assay: NCI60 five-dose screen; conditions: Homo sapiens
# COLO 205 = assay: NCI60 five-dose screen; conditions: Homo sapiens
# UACC-62 [15] = assay: NCI60 five-dose screen; conditions: Homo sapiens
# RPMI-8226 = assay: NCI60 five-dose screen; conditions: Homo sapiens
# CNS Cancer panel = assay: NCI60 five-dose screen, panel mean; conditions: Homo sapiens, read-out: GI50 Mean
# NCI-H322M = assay: NCI60 five-dose screen; conditions: Homo sapiens
# IGROV1 [16] = assay: NCI60 one-dose screen; conditions: Homo sapiens
# NCI/ADR-RES [17] = assay: NCI60 one-dose screen; conditions: Homo sapiens, read-out: Growth percent
# Ovarian Cancer panel = assay: NCI60 five-dose screen, panel mean; conditions: Homo sapiens, read-out: GI50 Mean
# K-562 = assay: NCI60 five-dose screen; conditions: Homo sapiens, K562
# MCF7 [18] = assay: NCI60 five-dose screen; conditions: Homo sapiens
# HCC-2998 = assay: NCI60 one-dose screen; conditions: Homo sapiens
# SN12C [19] = assay: NCI60 one-dose screen; conditions: Homo sapiens, read-out: Growth percent
# SN12C [20] = assay: NCI60 five-dose screen; conditions: Homo sapiens
# Leukemia panel = assay: NCI60 five-dose screen, panel mean; conditions: Homo sapiens, read-out: GI50 Mean
# U251 = assay: NCI60 one-dose screen; conditions: Homo sapiens
# [21] = Non-small Cell Lung Cancer, read-out: GI50
compound,measurement,setting,value
CC[C@]12C=CCN3CC[C@@]4(c5ccc(OC)cc5N(C)[C@H]4[C@@](O)(C(=O)OC)[C@@H]1OC(=O)CCCC[P+](c1ccc(F)cc1)(c1ccc(F)cc1)c1ccc(F)cc1)[C@@H]32 [10c],GI50,"SF-268; SF-268, CNS Cancer, read-out: GI50",17.6 µM
same,GI50,"CCRF-CEM [1]; Leukemia, read-out: GI50",13.6 µM
same,GI50,Prostate Cancer panel; mean over Prostate Cancer panel,25.9 µM
same,GI50,"HCT-15; HCT-15, Colon Cancer, read-out: GI50",> 100 µM
same,activity at 10 µM,"UACC-257; UACC-257, 10 μM, one-dose, read-out: Growth percent",-50.7%
same,activity at 10 µM,"UACC-62 [2]; UACC-62, 10 μM, one-dose, read-out: Growth percent",-69.6%
same,GI50,"BT-549 [3]; BT-549, Breast Cancer, read-out: GI50",12.9 µM
same,activity at 10 µM,"BT-549 [4]; BT-549, 10 μM, one-dose, read-out: Growth percent",-23.5%
same,activity at 10 µM,"CAKI-1; CAKI-1, 10 μM, one-dose, read-out: Growth percent",73.2%
same,activity at 10 µM,"SF-539 [5]; SF-539, 10 μM, one-dose, read-out: Growth percent",16%
same,activity at 10 µM,"SNB-75; SNB-75, 10 μM, one-dose, read-out: Growth percent",-5.3%
same,GI50,"IGROV1 [6]; IGROV1, Ovarian Cancer, read-out: GI50",10.8 µM
same,activity at 10 µM,"CCRF-CEM [7]; 10 μM, one-dose",19.9%
same,GI50,"HCT-116; HCT-116, Colon Cancer, read-out: GI50",25.9 µM
same,activity at 10 µM,"NCI-H460; NCI-H460, 10 μM, one-dose, read-out: Growth percent",20.3%
same,GI50,"SNB-19; SNB-19, SNB-19, CNS Cancer, read-out: GI50",13 µM
same,GI50,Breast Cancer panel; mean over Breast Cancer panel,11.1 µM
same,activity at 10 µM,"MCF7 [8]; MCF7, 10 μM, one-dose, read-out: Growth percent",5.18%
same,activity at 10 µM,"OVCAR-3; OVCAR-3, 10 μM, one-dose, read-out: Growth percent",12.6%
same,GI50,"MALME-3M; MALME-3M, Melanoma, read-out: GI50",13.5 µM
same,GI50,EKVX [9]; [21],21 µM
same,activity at 10 µM,"SK-MEL-5; SK-MEL-5, 10 μM, one-dose, read-out: Growth percent",-59.6%
same,activity at 10 µM,"PC-3; PC-3, 10 μM, one-dose, read-out: Growth percent",15.7%
same,activity at 10 µM,"EKVX [10]; 10 μM, one-dose",53%
same,GI50,"TK-10; TK-10, Renal Cancer, read-out: GI50",21.2 µM
same,GI50,"NCI/ADR-RES [11]; Ovarian Cancer, read-out: GI50",> 100 µM
same,GI50,"SF-539 [12]; SF-539, CNS Cancer, read-out: GI50",21.9 µM
same,activity at 10 µM,"OVCAR-8 [13]; OVCAR-8, 10 μM, one-dose, read-out: Growth percent",20%
same,GI50,Colon Cancer panel; mean over Colon Cancer panel,26.9 µM
same,GI50,"NCI-H226; NCI-H226, Non-small Cell Lung Cancer, read-out: GI50",27.3 µM
same,GI50,"HS 578T; HS 578T, Breast Cancer, read-out: GI50",16.9 µM
same,activity at 10 µM,"RXF 393; RXF 393, 10 μM, one-dose, read-out: Growth percent",-9.93%
same,GI50,"OVCAR-8 [14]; OVCAR-8, Ovarian Cancer, read-out: GI50",29.4 µM
same,GI50,"COLO 205; COLO 205, COLO 205, Colon Cancer, read-out: GI50",4.63 µM
same,GI50,"UACC-62 [15]; UACC-62, Melanoma, read-out: GI50",11.3 µM
same,GI50,"RPMI-8226; RPMI-8226, Leukemia, read-out: GI50",2.97 µM
same,GI50,CNS Cancer panel; mean over CNS Cancer panel,18.8 µM
same,GI50,NCI-H322M; [21],50 µM
same,activity at 10 µM,"IGROV1 [16]; IGROV-1, IGROV1, 10 μM, one-dose, read-out: Growth percent",-42.8%
same,activity at 10 µM,"NCI/ADR-RES [17]; 10 μM, one-dose",105%
same,GI50,Ovarian Cancer panel; mean over Ovarian Cancer panel,32.5 µM
same,GI50,"K-562; K-562, Leukemia, read-out: GI50",11.3 µM
same,GI50,"MCF7 [18]; MCF7, MCF7, Breast Cancer, read-out: GI50",11.5 µM
same,activity at 10 µM,"HCC-2998; HCC-2998, 10 μM, one-dose, read-out: Growth percent",19.4%
same,activity at 10 µM,"SN12C [19]; 10 μM, one-dose",10.6%
same,GI50,"SN12C [20]; Renal Cancer, read-out: GI50",28.6 µM
same,GI50,Leukemia panel; mean over Leukemia panel,9.86 µM
same,activity at 10 µM,"U251; U-251, U251, 10 μM, one-dose, read-out: Growth percent",13%
CC[C@]12C=CCN3CC[C@@]4(c5ccc(OC)cc5N(C)[C@H]4[C@@](O)(C(=O)OC)[C@@H]1OC(=O)CCCC[P+](C1CCCCC1)(C1CCCCC1)C1CCCCC1)[C@@H]32 [10d],GI50,SF-268; SF-268,3.17 µM
same,GI50,CCRF-CEM [1],2.55 µM
same,GI50,Prostate Cancer panel,2.56 µM
same,GI50,HCT-15; HCT-15,16.1 µM
same,activity at 10 µM,"UACC-257; UACC-257, read-out: Growth percent",-82.1%
same,activity at 10 µM,"UACC-62 [2]; UACC-62, read-out: Growth percent",-96.9%
same,GI50,BT-549 [3]; BT-549,2.45 µM
same,activity at 10 µM,"BT-549 [4]; BT-549, read-out: Growth percent",-97.4%
same,activity at 10 µM,"CAKI-1; CAKI-1, read-out: Growth percent",-24.1%
same,activity at 10 µM,"SF-539 [5]; SF-539, read-out: Growth percent",-93.9%
same,activity at 10 µM,"SNB-75; SNB-75, read-out: Growth percent",-81.4%
same,GI50,IGROV1 [6],1.36 µM
same,activity at 10 µM,CCRF-CEM [7],-60.2%
same,GI50,HCT-116; HCT-116,2.94 µM
same,activity at 10 µM,"NCI-H460; NCI-H460, read-out: Growth percent",5.27%
same,GI50,SNB-19; SNB-19,1.92 µM
same,GI50,Breast Cancer panel,1.48 µM
same,activity at 10 µM,"MCF7 [8]; MCF7, read-out: Growth percent",-64.2%
same,activity at 10 µM,"OVCAR-3; OVCAR-3, read-out: Growth percent",-60.3%
same,GI50,MALME-3M; Malme-3M,1.63 µM
same,GI50,EKVX [9],3.13 µM
same,activity at 10 µM,"SK-MEL-5; SK-MEL-5, read-out: Growth percent",-96.2%
same,activity at 10 µM,"PC-3; PC-3, read-out: Growth percent",3.69%
same,activity at 10 µM,EKVX [10],13.2%
same,GI50,TK-10; TK-10,3.08 µM
same,GI50,NCI/ADR-RES [11],65.5 µM
same,GI50,SF-539 [12]; SF-539,2.85 µM
same,activity at 10 µM,"OVCAR-8 [13]; OVCAR-8, read-out: Growth percent",-6.33%
same,GI50,Colon Cancer panel,3.8 µM
same,GI50,NCI-H226; NCI-H226,4.41 µM
same,GI50,HS 578T; Hs-578T,2.61 µM
same,activity at 10 µM,"RXF 393; RXF 393, read-out: Growth percent",-73.8%
same,GI50,OVCAR-8 [14]; OVCAR-8,2.93 µM
same,GI50,COLO 205; COLO 205,0.377 µM
same,GI50,UACC-62 [15]; UACC-62,1.53 µM
same,GI50,RPMI-8226; RPMI-8226,0.412 µM
same,GI50,CNS Cancer panel,2.6 µM
same,GI50,NCI-H322M,5.3 µM
same,activity at 10 µM,"IGROV1 [16]; IGROV-1, read-out: Growth percent",-84.7%
same,activity at 10 µM,NCI/ADR-RES [17],96.7%
same,GI50,Ovarian Cancer panel,11.4 µM
same,GI50,K-562,0.983 µM
same,GI50,MCF7 [18]; MCF7,1.05 µM
same,activity at 10 µM,"HCC-2998; HCC 2998, read-out: Growth percent",-87.8%
same,activity at 10 µM,SN12C [19],-57.9%
same,GI50,SN12C [20],2.77 µM
same,GI50,Leukemia panel,1.22 µM
same,activity at 10 µM,"U251; U-251, read-out: Growth percent",-87.9%
